Experimental data reported in ChEMBL document CHEMBL1144945, “Development of progesterone receptor antagonists from 1,2-dihydrochromeno[3,4-f]quinoline agonist pharmacophore” (Bioorg Med Chem Lett, 2003).
Active and inactive are the calls of the source. The rule behind the calls is not given here.

Legend:
[1] = target: T1, Androgen receptor (Homo sapiens) (UniProt P10275); experiment: Antagonist efficacy for human sndrogen receptor; format: functional
T1 sequence (whole entry): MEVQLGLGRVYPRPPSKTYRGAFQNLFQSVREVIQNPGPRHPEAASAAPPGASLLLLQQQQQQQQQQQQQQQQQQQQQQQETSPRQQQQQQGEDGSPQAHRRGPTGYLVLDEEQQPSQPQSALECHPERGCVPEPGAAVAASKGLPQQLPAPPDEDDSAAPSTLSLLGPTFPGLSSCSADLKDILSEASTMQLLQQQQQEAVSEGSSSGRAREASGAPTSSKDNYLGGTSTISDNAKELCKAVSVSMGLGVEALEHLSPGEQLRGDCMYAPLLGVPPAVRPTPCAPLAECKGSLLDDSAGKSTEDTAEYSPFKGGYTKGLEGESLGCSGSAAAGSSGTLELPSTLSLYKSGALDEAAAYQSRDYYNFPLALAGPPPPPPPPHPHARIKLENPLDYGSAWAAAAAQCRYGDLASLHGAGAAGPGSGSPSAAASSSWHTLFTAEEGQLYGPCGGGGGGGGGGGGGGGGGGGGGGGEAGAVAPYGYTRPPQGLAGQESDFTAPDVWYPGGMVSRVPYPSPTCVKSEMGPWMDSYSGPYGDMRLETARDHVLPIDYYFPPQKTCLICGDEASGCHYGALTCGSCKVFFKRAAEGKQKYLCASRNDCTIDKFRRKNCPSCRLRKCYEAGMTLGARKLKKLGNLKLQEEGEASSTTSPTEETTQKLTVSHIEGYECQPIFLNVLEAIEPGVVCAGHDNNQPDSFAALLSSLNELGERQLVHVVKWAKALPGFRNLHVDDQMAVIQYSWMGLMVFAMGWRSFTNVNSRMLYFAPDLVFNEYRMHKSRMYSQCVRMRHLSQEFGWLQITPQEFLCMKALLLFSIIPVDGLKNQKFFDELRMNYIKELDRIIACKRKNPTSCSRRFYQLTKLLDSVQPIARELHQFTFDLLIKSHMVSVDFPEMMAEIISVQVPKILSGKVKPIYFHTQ

Androgen receptor [2] = target: T2, Androgen receptor (Homo sapiens, UniProt P10275); experiment: Inhibition of antagonist activity towards human Androgen receptor; format: functional
T2 sequence (P10275 whole entry): T1 sequence (whole entry)

[3] = target: T3, Glucocorticoid receptor (Homo sapiens) (UniProt P04150); experiment: Antagonist efficiency for glucocorticoid (hGR) receptor; format: functional
T3 sequence (whole entry): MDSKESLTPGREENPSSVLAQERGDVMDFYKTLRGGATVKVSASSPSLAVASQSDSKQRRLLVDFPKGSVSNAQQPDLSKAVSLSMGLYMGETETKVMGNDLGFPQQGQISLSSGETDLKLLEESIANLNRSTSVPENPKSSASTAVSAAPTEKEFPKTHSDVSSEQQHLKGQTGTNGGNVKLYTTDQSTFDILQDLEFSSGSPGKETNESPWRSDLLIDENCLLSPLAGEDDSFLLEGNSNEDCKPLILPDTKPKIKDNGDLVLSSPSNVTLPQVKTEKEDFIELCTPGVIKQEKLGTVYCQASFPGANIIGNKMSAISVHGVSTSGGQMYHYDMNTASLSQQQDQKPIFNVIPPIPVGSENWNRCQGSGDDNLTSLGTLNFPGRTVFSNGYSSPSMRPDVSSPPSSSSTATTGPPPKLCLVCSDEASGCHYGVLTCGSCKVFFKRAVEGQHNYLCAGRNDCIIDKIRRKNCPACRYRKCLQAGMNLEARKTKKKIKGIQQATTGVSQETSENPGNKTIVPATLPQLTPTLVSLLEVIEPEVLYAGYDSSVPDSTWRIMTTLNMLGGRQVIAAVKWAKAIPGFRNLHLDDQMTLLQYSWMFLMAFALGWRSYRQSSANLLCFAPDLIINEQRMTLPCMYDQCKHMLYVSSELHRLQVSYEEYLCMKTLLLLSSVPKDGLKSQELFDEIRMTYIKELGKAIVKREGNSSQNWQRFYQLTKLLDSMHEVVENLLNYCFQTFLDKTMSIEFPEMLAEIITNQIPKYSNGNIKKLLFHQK

Glucocorticoid receptor [4] = target: T4, Glucocorticoid receptor (Homo sapiens, UniProt P04150); experiment: Inhibition of antagonist activity towards glucocorticoid (hGR) receptor; format: functional
T4 sequence (P04150 whole entry): T3 sequence (whole entry)

[5] = target: Estrogen receptor (Homo sapiens) (UniProt Q92731+P03372); experiment: Antagonist efficacy for estrogen (hER) receptor; Not active; format: functional
Progesterone receptor [6] = target: T5, Progesterone receptor (Homo sapiens, UniProt P06401); experiment: Effective concentration for antagonistic activity towards human progesterone in CV-1 cells; format: functional, cell-based
T5 sequence (P06401 whole entry): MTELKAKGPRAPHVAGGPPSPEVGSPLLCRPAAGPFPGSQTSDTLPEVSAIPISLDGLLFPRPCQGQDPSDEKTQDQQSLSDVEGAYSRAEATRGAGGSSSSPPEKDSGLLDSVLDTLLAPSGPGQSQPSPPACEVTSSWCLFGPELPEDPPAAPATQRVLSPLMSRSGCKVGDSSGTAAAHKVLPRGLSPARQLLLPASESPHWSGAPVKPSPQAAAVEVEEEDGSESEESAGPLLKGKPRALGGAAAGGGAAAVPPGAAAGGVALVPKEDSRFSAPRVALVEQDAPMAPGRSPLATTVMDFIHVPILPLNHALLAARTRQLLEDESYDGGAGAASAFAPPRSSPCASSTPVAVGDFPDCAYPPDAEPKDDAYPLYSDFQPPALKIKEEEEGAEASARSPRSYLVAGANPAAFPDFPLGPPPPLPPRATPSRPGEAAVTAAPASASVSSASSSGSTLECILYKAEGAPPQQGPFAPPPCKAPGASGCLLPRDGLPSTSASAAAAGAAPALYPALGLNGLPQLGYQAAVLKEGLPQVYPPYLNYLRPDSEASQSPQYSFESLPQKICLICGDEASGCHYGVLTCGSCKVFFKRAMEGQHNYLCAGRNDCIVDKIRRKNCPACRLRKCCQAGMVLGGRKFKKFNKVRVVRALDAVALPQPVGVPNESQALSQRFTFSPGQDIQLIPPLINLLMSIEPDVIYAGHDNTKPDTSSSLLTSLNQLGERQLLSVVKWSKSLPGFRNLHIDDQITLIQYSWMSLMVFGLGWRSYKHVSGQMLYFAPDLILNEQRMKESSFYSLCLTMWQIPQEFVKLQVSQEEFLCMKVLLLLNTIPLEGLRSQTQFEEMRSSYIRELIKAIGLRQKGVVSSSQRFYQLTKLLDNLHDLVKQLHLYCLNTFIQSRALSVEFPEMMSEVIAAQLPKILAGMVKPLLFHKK

[7] = target: T6, Progesterone receptor (Homo sapiens) (UniProt P06401); experiment: Antagonist efficacy for human progesterone in CV-1 cells; format: functional, cell-based
T6 sequence (whole entry): T5 sequence (P06401 whole entry)

Androgen receptor [8] = target: T2, Androgen receptor; experiment: Inhibition of antagonist activity towards human androgen receptor; format: functional
Glucocorticoid receptor [9] = target: T4, Glucocorticoid receptor; experiment: Inhibition of antagonist activity towards glucocorticoid receptor; not active; format: functional
[10] = target: T6, Progesterone receptor (Homo sapiens); experiment: Agonist efficacy for human progesterone in T47D human breast cancer cell; format: functional, cell-based
Progesterone receptor [11] = target: T5, Progesterone receptor; experiment: Effective concentration for human progesterone in T47D human breast cancer cell; format: cell-based, Cancer cell lines
Progesterone receptor [12] = target: T5, Progesterone receptor; experiment: Inhibition of human progesterone in T47D human breast cancer cell; format: cell-based
Glucocorticoid receptor [13] = target: T4, Glucocorticoid receptor; experiment: Inhibition of antagonist activity towards glucocorticoid receptor; format: functional
Androgen receptor [14] = target: T2, Androgen receptor
Description: Inhibition of antagonist activity towards Androgen receptor

Efficacy [1]	IC50 (Androgen receptor [2])	IC50 (Glucocorticoid receptor [4])	Efficacy [5]	EC50 (Progesterone receptor [6])	Efficacy [7]	SMILES	IC50 (Glucocorticoid receptor [13])	IC50 (Androgen receptor [14])	also measured
79%	428 nM	753 nM	inactive	13.5 nM	74%	CC1=CC(C)(C)Nc2ccc3c(c21)COc1c(F)cc(Cl)cc1-3			Efficacy [3]: 95%
87%	644 nM	3030 nM	inactive	25.4 nM	83%	CC1=CC(C)(C)Nc2ccc3c(c21)COc1c(F)cc(F)cc1-3			Efficacy [10]: 42%; EC50 (Progesterone receptor [11]): 244 nM; IC50 (Progesterone receptor [12]): 86 nM

Second part, the molecule before the results:

SMILES	Efficacy [1]	IC50 (Androgen receptor [2])	IC50 (Glucocorticoid receptor [4])	Efficacy [5]	EC50 (Progesterone receptor [6])	Efficacy [7]	IC50 (Glucocorticoid receptor [13])	IC50 (Androgen receptor [14])	also measured
CC1CC(C)(C)Nc2ccc3c(c21)COc1c(F)cc(F)cc1-3 (configuration not stated)									IC50 (Androgen receptor [8]): 147 nM; IC50 (Glucocorticoid receptor [9]): Not Active
CC1CC(C)(C)Nc2ccc3c(c21)COc1ccc([N+](=O)[O-])cc1-3 (configuration not stated)							1870 nM	63 nM	
CC1=CC(C)(C)Nc2ccc3c(c21)COc1c(F)cc(Br)cc1-3							2170 nM	90 nM	
